Like-named read-outs stand apart in the source and are kept apart here.

In one series the target is PDGFRα (Homo sapiens (Human), UniProt P16234). Kind of series: PDGFRα kinase enzyme assay (Promega PDGFRα Kinase Enzyme System, ADP-Glo). The conditions noted are these: 150 uM ATP. Type of series: biochemical. Summed up:
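Purified PDGFRα protein (20 ng) reacted with test compound per the Promega kinase system protocol. ADP formed was measured by ADP-Glo luminescence against a standard curve, giving IC50.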

The test system of series [1] is GPR17+ cells (newly differentiated oligodendrocytes). Kind of series: In vivo OPC differentiation, GPR17+ cells in brain. The following applies: Mus musculus, po, 24 h, read-out: GPR17 Fold Induction (Over Vehicle).
In series [2] the test system is Oligodendrocyte progenitor cells (OPCs). Kind of series: In vitro OPC differentiation assay, MBP expression (immunocytochemistry). The conditions noted are these: 72 hours of treatment; fold change over vehicle.
Procedure: Cortices from postnatal day (P) 1-3 rats were dissected and collected into ice cold Hank's Balanced Salt Solution (HBSS). […] Briefly, the cortical cell suspension was centrifuged and washed with buffer (0.5% BSA in PBS) and labeled with Anti-A2B5 MicroBeads (10 μL beads per 1×10^7 cells) for 15 minutes at 4° C. Following the incubation, cells were washed once with BSA buffer to remove unlabeled beads. A2B^5 positive cells were eluted on the column using the AutoMACS® (Miltenyi, as per manufacturer's protocol using “possel-s” program). Eluted cells were further washed twice with OPC growth media. Cell count was performed using Countess III cell counter (ThermoFisher; AMQAX2000) and cells were plated.
A2B5+ OPCs were plated in poly-d-lysine (PDL) coated T75 flask at a density of ˜3 million cells per flask. […] TrypLE was normalized by adding 10 mL growth media and cells were centrifuged at 1400 rpm for 10 minutes. […] The plates were allowed to sit at room temperature for 15 minutes to ensure proper dispersion of cells in a well. The plates were then transferred to the incubator (37° C.; 5% CO2).
Cells were then incubated for 72 hours at 37° C., 5% CO2 before immunostaining for MBP marker expression.
Following 72 hours of treatment, cells were fixed with 4% paraformaldehyde for 15 minutes then washed three times in DPBS. Prior to staining, cells were blocked for 15 minutes in 10% normal goat serum containing 1% BSA and 0.1% Triton X-100 in DPBS. Primary antibody (MBP @ 1:2000; Abcam AB7349) was applied to cells overnight at 4° C. in incubation solution containing 1% normal goat serum, 1% BSA, and 0.1% Triton X-100 in DPBS.
The number of differentiated MBP+ cells was normalized to the total nuclei count and percent differentiated MBP+ cells were reported.
Series [3] shares this test system. Kind of series: In vitro OPC differentiation assay, GPR17 expression (immunocytochemistry). The conditions noted are these: 72 hours, fold change over vehicle; for GPR17 Fold Induction (Over Vehicle; 3 μM): 3 μM (10× concentration, final 0.3 μM); for GPR17 Fold Induction (Over Vehicle; 5 μM): 5 μM (10× concentration, final 0.5 μM).
[4] abbreviates: 11-point dose response, 10,000 nM to 0.169 nM, BLQ = below limit of quantitation, read-out: IC50 Values on PDGFRα Kinase Inhibition, IC50.

PDGFRα, sequence (P16234 24-1089): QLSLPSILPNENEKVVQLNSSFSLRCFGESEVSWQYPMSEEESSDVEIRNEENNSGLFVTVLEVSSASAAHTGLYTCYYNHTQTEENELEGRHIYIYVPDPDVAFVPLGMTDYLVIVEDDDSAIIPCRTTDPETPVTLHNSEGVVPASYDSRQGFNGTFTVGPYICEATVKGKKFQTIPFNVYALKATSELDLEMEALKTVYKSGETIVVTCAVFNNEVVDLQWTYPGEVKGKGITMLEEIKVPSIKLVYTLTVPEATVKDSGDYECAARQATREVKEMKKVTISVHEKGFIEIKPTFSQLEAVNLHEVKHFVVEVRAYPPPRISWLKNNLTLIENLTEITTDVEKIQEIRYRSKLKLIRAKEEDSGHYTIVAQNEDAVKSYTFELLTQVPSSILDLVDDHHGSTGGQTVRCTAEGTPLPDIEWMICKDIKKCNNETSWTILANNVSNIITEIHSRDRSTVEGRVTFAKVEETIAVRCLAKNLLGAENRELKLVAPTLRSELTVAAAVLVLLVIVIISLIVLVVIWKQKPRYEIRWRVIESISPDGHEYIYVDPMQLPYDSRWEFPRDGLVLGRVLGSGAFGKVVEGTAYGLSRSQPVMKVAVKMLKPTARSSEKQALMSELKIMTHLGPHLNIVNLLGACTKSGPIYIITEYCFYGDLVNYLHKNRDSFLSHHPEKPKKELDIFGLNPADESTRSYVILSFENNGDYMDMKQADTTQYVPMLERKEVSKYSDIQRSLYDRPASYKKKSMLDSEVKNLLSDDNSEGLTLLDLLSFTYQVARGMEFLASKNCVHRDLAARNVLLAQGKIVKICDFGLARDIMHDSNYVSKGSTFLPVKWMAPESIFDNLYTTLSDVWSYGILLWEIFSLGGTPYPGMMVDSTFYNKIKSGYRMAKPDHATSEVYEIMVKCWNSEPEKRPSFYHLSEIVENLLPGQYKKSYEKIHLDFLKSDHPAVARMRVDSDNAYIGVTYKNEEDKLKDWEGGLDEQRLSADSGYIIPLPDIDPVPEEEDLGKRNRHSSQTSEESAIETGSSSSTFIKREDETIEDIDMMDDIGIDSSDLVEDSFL

As a reminder, the IC50 is the midpoint of a concentration-inhibition curve. With `Cn1cc(-c2ccc3c(N4CCN(C(=O)N5CCC[C@@H]5c5ccc(Cl)cc5)CC4)cnn3c2)cn1` [Compound 277, 3-(4-{[(2R)-2-(4-chlorophenyl)pyrrolidin-1-yl]carbonyl}piperazin-1-yl)-6-(1-methyl-1H-pyrazol-4-yl)pyrazolo[1,5-a]pyridine], the IC50 at PDGFRα (setting [4]) turned out to be 208 nM. Moreover, in series [1], the fold induction at 3 mg/kg is 0.96. In addition, in series [2], the “MBP Fold Induction (Over vehicle)” value was 8.37. In addition, the “GPR17 Fold Induction (Over Vehicle; 3 μM)” value in series [3] was 5.36.

Consider `COC(c1ccc(F)cc1)c1cnc(N2CCN(c3cnn4cc(-c5cnn(C)c5)ccc34)CC2)nc1` (centres unmarked) [Compound 263, 3-(4-(5-((4-fluorophenyl)(methoxy)methyl)pyrimidin-2-yl)piperazin-1-yl)-6-(1-methyl-1H-pyrazol-4-yl)pyrazolo[1,5-a]pyridine], for which, on PDGFRα (setting [4]), the half-inhibitory concentration (IC50) was 517 nM. For the same compound, the “MBP Fold Induction (Over vehicle)” value in series [2] came out at 12.61. Besides, the “GPR17 Fold Induction (Over Vehicle; 3 μM)” value in series [3] was determined as 5.98.

For the compound `C[C@@H](OC(=O)N1CCN(c2cnn3cc(-c4cnn(C)c4)ccc23)CC1)c1ccc(F)c(F)c1` [Compound 266, (1R)-1-(3,4-difluorophenyl]ethyl 4-[6-(1-methyl-1H-pyrazol-4-yl)pyrazolo[1,5-a]pyridin-3-yl]piperazine-1-carboxylate], the half-inhibitory concentration (IC50) at PDGFRα (setting [4]) was 2.69 nM. Further, the “MBP Fold Induction (Over vehicle)” value in series [2] was found to be 14.20. Also, in series [3], the “GPR17 Fold Induction (Over Vehicle; 3 μM)” value is 4.88.

Regarding `Cn1cc(-c2ccc3c(N4CCN(C(=O)OCCC5CCOCC5)CC4)cnn3c2)cn1` [Compound 15, 2-(tetrahydro-2H-pyran-4-yl)ethyl 4-[6-(1-methyl-1H-pyrazol-4-yl)pyrazolo[1,5-a]pyridin-3-yl]piperazine-1-carboxylate], the 50% inhibitory concentration (IC50) on PDGFRα (setting [4]) worked out at 1410 nM. In addition, the “MBP Fold Induction (Over vehicle)” value in series [2] amounted to 1.97. For the same compound, in series [3], the “GPR17 Fold Induction (Over Vehicle; 3 μM)” value stood at 6.37 and the “GPR17 Fold Induction (Over Vehicle; 5 μM)” value is on record as 3.98.

With `Cn1cc(-c2ccc3c(N4CCN(c5ncc(Cc6ccccc6)cn5)CC4)cnn3n2)cn1` [Compound 8, 3-[4-(5-benzylpyrimidin-2-yl)piperazin-1-yl]-6-(1-methyl-1H-pyrazol-4-yl)pyrazolo[1,5-b]pyridazine], at PDGFRα (setting [4]), the concentration for half-maximal inhibition (IC50) was 1680 nM. The “MBP Fold Induction (Over vehicle)” value in series [2] is listed as 2.33. In addition, in series [3], the “GPR17 Fold Induction (Over Vehicle; 3 μM)” value is 10.86 and the “GPR17 Fold Induction (Over Vehicle; 5 μM)” value was determined as 3.18.

Consider `Cn1cc(-c2ccc3c(NC4CN(c5ncc(Cc6ccccc6)cn5)C4)cnn3c2)cn1` [Compound 131, N-(1-(5-benzylpyrimidin-2-yl)azetidin-3-yl)-6-(1-methyl-1H-pyrazol-4-yl)pyrazolo[1,5-a]pyridin-3-amine], for which the half-maximal inhibitory concentration (IC50) on PDGFRα (setting [4]) stood at 3880 nM. In series [2], the “MBP Fold Induction (Over vehicle)” value is 2.49. For the same compound, in series [3], the “GPR17 Fold Induction (Over Vehicle; 3 μM)” value turned out to be 6.36.

Consider `COCCn1cc(-c2ccc3c(N4CCN(c5ncc(Cc6ccccc6)cn5)CC4)cnn3c2)cn1` [Compound 29, 3-[4-(5-benzylpyrimidin-2-yl)piperazin-1-yl]-6-[1-(2-methoxyethyl)-1H-pyrazol-4-yl]pyrazolo[1,5-a]pyridine], for which the 50% inhibitory concentration (IC50) at PDGFRα (setting [4]) worked out at 925 nM. The “MBP Fold Induction (Over vehicle)” value in series [2] is 4.26. Further, in series [3], the “GPR17 Fold Induction (Over Vehicle; 3 μM)” value was 9.41 and the “GPR17 Fold Induction (Over Vehicle; 5 μM)” value worked out at 3.20.

On to `Cn1cc(-c2ccc3c(N4CCN(c5ncc(Cc6ccc(Cl)cc6)cn5)CC4)cnn3c2)cn1` [Compound 65, 3-{4-[5-(4-chlorobenzyl)pyrimidin-2-yl]piperazin-1-yl}-6-(1-methyl-1H-pyrazol-4-yl)pyrazolo[1,5-a]pyridine], for which the IC50 on PDGFRα (setting [4]) was 670 nM. Further, the “MBP Fold Induction (Over vehicle)” value in series [2] is on record as 1.71. Also, the “GPR17 Fold Induction (Over Vehicle; 3 μM)” value in series [3] worked out at 5.18.

In the case of `CC(C)Cc1cnc(N2CCN(c3cnn4cc(-c5cnn(C)c5)ccc34)CC2)nc1` [Compound 189, 3-(4-(5-isobutylpyrimidin-2-yl)piperazin-1-yl)-6-(1-methyl-1H-pyrazol-4-yl)pyrazolo[1,5-a]pyridine], at PDGFRα (setting [4]), the IC50 was determined as 5280 nM. The “MBP Fold Induction (Over vehicle)” value in series [2] came out at 4.70. Further, the “GPR17 Fold Induction (Over Vehicle; 3 μM)” value in series [3] turned out to be 7.61.

With `Cn1cc(-c2ccc3c(N4CCN(c5ncccn5)CC4)cnn3c2)cn1` [Compound 10, 6-(1-methyl-1H-pyrazol-4-yl)-3-(4-pyrimidin-2-ylpiperazin-1-yl)pyrazolo[1,5-a]pyridine], at PDGFRα (setting [4]), the 50% inhibitory concentration (IC50) is 6190 nM. Further, the “MBP Fold Induction (Over vehicle)” value in series [2] was 1.41. Moreover, in series [3], the “GPR17 Fold Induction (Over Vehicle; 3 μM)” value was found to be 5.65 and the “GPR17 Fold Induction (Over Vehicle; 5 μM)” value was determined as 3.81.

On to `C[C@@H](OC(=O)N1CCN(c2cnn3nc(-c4cnn(C)c4)ccc23)CC1)c1ccccc1` [Compound 50, (R)-1-phenylethyl 4-(6-(1-methyl-1H-pyrazol-4-yl)pyrazolo[1,5-b]pyridazin-3-yl)piperazine-1-carboxylate], for which the IC50 at PDGFRα (setting [4]) was 3140 nM. Also, in series [2], the “MBP Fold Induction (Over vehicle)” value amounted to 1.82. Further, the “GPR17 Fold Induction (Over Vehicle; 3 μM)” value in series [3] was 5.00.

Regarding “3-[4-(5-benzylpyrimidin-2-yl)piperazin-1-yl]-7-(1-methyl-1H-pyrazol-4-yl)imidazo[1,2-b]pyridazine [Compound 52]”, the IC50 on PDGFRα (setting [4]) came to 1950 nM. Moreover, the “MBP Fold Induction (Over vehicle)” value in series [2] is given as 2.66. Also, in series [3], the “GPR17 Fold Induction (Over Vehicle; 3 μM)” value came to 9.09 and the “GPR17 Fold Induction (Over Vehicle; 5 μM)” value is given as 5.41.

As for `CCC(CC)OC(=O)N1CCN(c2cnn3cc(-c4cnn(C)c4)ccc23)CC1` [Compound 16, 1-ethylpropyl 4-[6-(1-methyl-1H-pyrazol-4-yl)pyrazolo[1,5-a]pyridin-3-yl]piperazine-1-carboxylate], the 50% inhibitory concentration (IC50) at PDGFRα (20 ng purified PDGFRα, Poly (Glu4Tyr1) substrate, two hours, 11-point dose response, read-out: IC50 Values on PDGFRα Kinase Inhibition) was less than 1000 nM. For the same compound, the IC50 at PDGFRα (setting [4]) worked out at 283 nM. The “MBP Fold Induction (Over vehicle)” value in series [2] stood at 5.15. In addition, in series [3], the “GPR17 Fold Induction (Over Vehicle; 3 μM)” value is reported as 6.82 and the “GPR17 Fold Induction (Over Vehicle; 5 μM)” value came out at 2.39.

Turning to `CC(C)C(O)c1cnc(N2CCN(c3cnn4cc(-c5cnn(C)c5)ccc34)CC2)nc1` (centres unmarked) [Compound 176, 2-methyl-1-(2-{4-[6-(1-methyl-1H-pyrazol-4-yl)pyrazolo[1,5-a]pyridin-3-yl]piperazin-1-yl}pyrimidin-5-yl)propan-1-ol], the IC50 on PDGFRα (setting [4]) stood at 2080 nM. Moreover, in series [2], the “MBP Fold Induction (Over vehicle)” value came out at 1.48. Further, the “GPR17 Fold Induction (Over Vehicle; 3 μM)” value in series [3] turned out to be 3.90.

Turning to `Cn1cc(-c2ccc3c(C4=CCN(c5ncc(Cc6ccccc6)cn5)C4)cnn3c2)cn1` [Compound 51, 3-[1-(5-benzylpyrimidin-2-yl)-2,5-dihydro-1H-pyrrol-3-yl]-6-(1-methyl-1H-pyrazol-4-yl)pyrazolo[1,5-a]pyridine], on PDGFRα (setting [4]), the 50% inhibitory concentration (IC50) was 423 nM. Further, the “MBP Fold Induction (Over vehicle)” value in series [2] was 2.41. Also, in series [3], the “GPR17 Fold Induction (Over Vehicle; 3 μM)” value is 5.14 and the “GPR17 Fold Induction (Over Vehicle; 5 μM)” value stood at 2.52.

Consider `C[C@@H](OC(=O)N1CCN(c2cnn3cc(-c4cnn(C)c4)ccc23)CC1)c1ccccc1` [Compound 33, (R)-1-phenylethyl 4-(6-(1-methyl-1H-pyrazol-4-yl)pyrazolo[1,5-a]pyridin-3-yl)piperazine-1-carboxylate], for which the IC50 on PDGFRα (setting [4]) was determined as 7.17 nM. Moreover, the “MBP Fold Induction (Over vehicle)” value in series [2] worked out at 2.44. In series [3], the “GPR17 Fold Induction (Over Vehicle; 3 μM)” value was 13.76 and the “GPR17 Fold Induction (Over Vehicle; 5 μM)” value was determined as 7.14.

In the case of `Cn1cc(-c2ccc3c(N4CCC(c5ncc(Cc6ccccc6)cn5)C4)cnn3c2)cn1` (centres unmarked) [Compound 36, 3-[3-(5-benzylpyrimidin-2-yl)pyrrolidin-1-yl]-6-(1-methyl-1H-pyrazol-4-yl)pyrazolo[1,5-a]pyridine], the 50% inhibitory concentration (IC50) at PDGFRα (setting [4]) worked out at 685 nM. Further, in series [2], the “MBP Fold Induction (Over vehicle)” value turned out to be 1.92. In series [3], the “GPR17 Fold Induction (Over Vehicle; 3 μM)” value came to 7.08 and the “GPR17 Fold Induction (Over Vehicle; 5 μM)” value was determined as 5.22.

Consider `Cn1cc(-c2ccc3c(N4CCN(c5ncc(C(O)c6ccccc6)o5)CC4)cnn3c2)cn1` (centres unmarked) [Compound 248, (2-(4-(6-(1-methyl-1H-pyrazol-4-yl)pyrazolo[1,5-a]pyridin-3-yl)piperazin-1-yl)oxazol-5-yl)(phenyl)methanol], for which, on PDGFRα (setting [4]), the half-inhibitory concentration (IC50) came to 1190 nM. Moreover, in series [2], the “MBP Fold Induction (Over vehicle)” value turned out to be 16.04. The “GPR17 Fold Induction (Over Vehicle; 3 μM)” value in series [3] came to 3.90.

For `Cn1cc(-c2ccc3c(N4CCN(c5ccc(Cc6ccccc6)cc5)CC4)cnn3c2)cn1` [Compound 150, 3-(4-(4-benzylphenyl)piperazin-1-yl)-6-(1-methyl-1H-pyrazol-4-yl)pyrazolo[1,5-a]pyridine], the IC50 at PDGFRα (setting [4]) was 1140 nM. Besides, the “MBP Fold Induction (Over vehicle)” value in series [2] was found to be 2.93. Further, in series [3], the “GPR17 Fold Induction (Over Vehicle; 3 μM)” value is recorded as 4.10.

With `Cn1cc(-c2ccc3c(N4CCN(c5ncc(C(O)c6ccccc6)cn5)CC4)cnn3c2)cn1` (centres unmarked) [Compound 71, (2-{4-[6-(1-Methyl-1H-pyrazol-4-yl)pyrazolo[1,5-a]pyridin-3-yl]piperazin-1-yl}pyrimidin-5-yl)(phenyl)methanol], the IC50 at PDGFRα (setting [4]) turned out to be 5.27 nM. The “MBP Fold Induction (Over vehicle)” value in series [2] turned out to be 25.00. Moreover, the “GPR17 Fold Induction (Over Vehicle; 3 μM)” value in series [3] is on record as 9.66.

For `CC(=O)OC(c1ccc(F)cc1)c1cnc(N2CCN(c3cnn4cc(-c5cnn(C)c5)ccc34)CC2)nc1` (centres unmarked) [Compound 264, (4-fluorophenyl)(2-(4-(6-(1-methyl-1H-pyrazol-4-yl)pyrazolo[1,5-a]pyridin-3-yl)piperazin-1-yl)pyrimidin-5-yl)methyl acetate], the IC50 on PDGFRα (setting [4]) is 26.8 nM. Moreover, in series [2], the “MBP Fold Induction (Over vehicle)” value was 5.22. Besides, the “GPR17 Fold Induction (Over Vehicle; 3 μM)” value in series [3] came out at 6.72.
